From ChEMBL document CHEMBL5036302, “Amphiol, an Antifungal Fungal Pigment from Pseudogymnoascus sp. PF1464” (2021)
≈ marks a conversion by molar mass, not a printed value.

Tests used:
Type in all cases: functional
[1] = tested on: Aspergillus fumigatus; assay: Antifungal activity against Aspergillus fumigatus assessed as inhibition of fungal growth by CLSI protocol based microbroth dilution method
[2] = tested on: Escherichia coli; assay: Antibacterial activity against Escherichia coli assessed as inhibition of bacterial growth by CLSI protocol based microbroth dilution method
[3] = tested on: Staphylococcus aureus; assay: Antibacterial activity against Staphylococcus aureus assessed as inhibition of bacterial growth by CLSI protocol based microbroth dilution method
[4] = tested on: Schizosaccharomyces pombe; assay: Antifungal activity against Schizosaccharomyces pombe assessed as inhibition of fungal growth by CLSI protocol based microbroth dilution method
[5] = tested on: Candida albicans; assay: Antifungal activity against Candida albicans assessed as inhibition of fungal growth by CLSI protocol based microbroth dilution method

| MIC [1] [µg/mL] | MIC [2] [µg/mL] | MIC [3] [µg/mL] | MIC [4] [µg/mL] | MIC [5] [µg/mL] | Compound |
| --- | --- | --- | --- | --- | --- |
| 16 (≈ 25 µM) | > 64 | > 64 | 0.8 (≈ 1.25 µM) | 8 (≈ 12.5 µM) | CC(/C=C/C=C/C=C/C=C/C=C/C=C/c1cc(O)c([C@@H]2O[C@H](CO)[C@@H](O)[C@H](O)[C@H]2O)c(=O)o1)=C\[C@H](C)C(=O)[C@@H](C)C[C@@H](C)[C@H](C)O |
| – | – | – | 0.13 (≈ 0.141 µM) | – | C[C@@H]1[C@H](O)[C@@H](C)/C=C/C=C/C=C/C=C/C=C/C=C/C=C/[C@H](O[C@@H]2O[C@H](C)[C@@H](O)[C@H](N)[C@@H]2O)C[C@@H]2O[C@](O)(C[C@@H](O)C[C@@H](O)[C@H](O)CC[C@@H](O)C[C@@H](O)CC(=O)O[C@H]1C)C[C@H](O)[C@H]2C(=O)O [AMPHOTERICIN B] |
